Here are results for 14 molecules from patent publication US20240238423A9, “TETRAHYDROISOQUINOLINE HETEROBIFUNCTIONAL BCL-XL DEGRADERS” (Treeline Biosciences, Inc., priority 2022, published 2024).

Structures are written as SMILES. Where two headings read alike, the source gives them in different places.

The target in the experiment is T1, Human BCL-XL protein (N-terminal HiBiT tagged BCL-XL in HT1080 cells) (Homo sapiens, UniProt Q07817).
T1 construct: expressed in transfected cells; host or cells: HT-1080 (ATCC CCL-121), stably transduced with lentivirus pLV-UBC-N-HiBiT-BCL-XL-PGK-puro and selected with puromycin
T1 sequence (Q07817 whole entry): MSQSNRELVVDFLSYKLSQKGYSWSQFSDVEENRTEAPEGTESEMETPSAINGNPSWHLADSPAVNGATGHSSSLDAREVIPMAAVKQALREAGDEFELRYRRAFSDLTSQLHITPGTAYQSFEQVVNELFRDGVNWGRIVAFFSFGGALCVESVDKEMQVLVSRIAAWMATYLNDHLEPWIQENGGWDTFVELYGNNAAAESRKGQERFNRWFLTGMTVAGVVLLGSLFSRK
Nature of the experiment: HiBiT based degradation assay. The class given is cell-based. The settings on record: HT1080 cells expressing HiBiT-BCL-XL; for Ymin (6 h) / Ymin (24 h): BCL-XL degradation normalized with DMSO control; for DC50: BCL-XL degradation. Put shortly:
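HT1080 cells stably transduced by lentivirus with N-terminally HiBiT-tagged human BCL-XL and kept under 1 μg/mL puromycin selection were seeded at three thousand cells per well in 40 μL RPMI 1640 into 384-well plates pre-spotted with compounds across a concentration range. Luminescence was read on a PHERAstar FSX, normalized to DMSO, and fitted with a four-parameter logistic model.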
For orientation: HiBiT is a short tag that completes a luciferase, so light tracks the accessible tagged protein.

Take `Cc1c(OCCCN2CCN(CC(=O)Nc3ccc4c(C5CCC(=O)NC5=O)nn(C)c4c3)[C@@H](C(F)(F)F)C2)cccc1-c1ccc(N2CCc3cccc(C(=O)Nc4nc5ccccc5s4)c3C2)nc1C(=O)O` (stereo partly drawn) [Compound 187b, 6-(8-(benzo[d]thiazol-2-ylcarbamoyl)-3,4-dihydroisoquinolin-2(1H)-yl)-3-(3-(3-((3R)-4-(2-((3-(2,6-dioxopiperidin-3-yl)-1-methyl-1H-indazol-6-yl)amino)-2-oxoethyl)-3-(trifluoromethyl)piperazin-1-yl)propoxy)-2-methylphenyl)picolinic acid]: the “Ymin (6 h)” value (6 h) is reported as “B (50% ≤ Ymin < 70%)”. Further, the “Ymin (24 h)” value (24 h) is listed as “A (Ymin < 50%)”. In addition, the DC50 is, setting by setting: (6 h, read-out: EC50 (6 h)) less than 100 nM; (24 h, read-out: EC50 (24 h)) less than 100 nM.
In the case of `Cc1c(OCC2CC3(CCN(CCN4CCN(c5cccc6c(C7CCC(=O)NC7=O)nn(C)c56)CC4)CC3)C2)cccc1-c1ccc(N2CCc3cccc(C(=O)Nc4nc5ccccc5s4)c3C2)nc1C(=O)O` (stereo not drawn) [Compound 188, 6-[8-(1,3-benzothiazol-2-ylcarbamoyl)-3,4-dihydro-1H-isoquinolin-2-yl]-3-[3-[[7-[2-[4-[3-(2,6-dioxo-3-piperidyl)-1-methyl-indazol-7-yl]piperazin-1-yl]ethyl]-7-azaspiro[3.5]nonan-2-yl]methoxy]-2-methyl-phenyl]pyridine-2-carboxylic acid], where the note is “24 h”, the “Ymin (24 h)” value is “A (Ymin < 50%)”. Besides, for the setting “24 h, read-out: EC50 (24 h)”, the DC50 is less than 100 nM.
With `Cc1c(OCCCN2CCN(CC3CCN(c4ccc5c(C6CCC(=O)NC6=O)nn(C)c5c4)CC3)CC2)cccc1-c1ccc(N2CCc3cccc(C(=O)Nc4nc5ccccc5s4)c3C2)nc1C(=O)O` (stereo not drawn) [Compound 189, 6-(8-(benzo[d]thiazol-2-ylcarbamoyl)-3,4-dihydroisoquinolin-2(1H)-yl)-3-(3-(3-(4-((1-(3-(2,6-dioxopiperidin-3-yl)-1-methyl-1H-indazol-6-yl)piperidin-4-yl)methyl)piperazin-1-yl)propoxy)-2-methylphenyl)picolinic acid], the “Ymin (24 h)” value (24 h) is on record as “A (Ymin < 50%)”. The DC50 (24 h, read-out: EC50 (24 h)) is less than 100 nM.
`Cc1c(Oc2ccc(CCCC(=O)N3CCN(c4cccc5c(C6CCC(=O)NC6=O)nn(C)c45)CC3)cc2)cccc1-c1ccc(N2CCc3cccc(C(=O)Nc4nc5ccccc5s4)c3C2)nc1C(=O)O` (stereo not drawn) [Compound 191, 6-(8-(benzo[d]thiazol-2-ylcarbamoyl)-3,4-dihydroisoquinolin-2(1H)-yl)-3-(3-(4-(4-(4-(3-(2,6-dioxopiperidin-3-yl)-1-methyl-1H-indazol-7-yl)piperazin-1-yl)-4-oxobutyl)phenoxy)-2-methylphenyl)picolinic acid]: the “Ymin (24 h)” value (24 h) is “B (50% ≤ Ymin < 70%)”. The DC50 (24 h, read-out: EC50 (24 h)) is less than 100 nM.
For `Cc1c(OCCCC2CCN(CCC3CCN(c4ccc5c(C6CCC(=O)NC6=O)nn(C)c5c4)CC3)CC2)cccc1-c1ccc(N2CCc3cccc(C(=O)Nc4nc5ccccc5s4)c3C2)nc1C(=O)O` (stereo not drawn) [Compound 192, 6-(8-(benzo[d]thiazol-2-ylcarbamoyl)-3,4-dihydroisoquinolin-2(1H)-yl)-3-(3-(3-(1-(2-(1-(3-(2,6-dioxopiperidin-3-yl)-1-methyl-1H-indazol-6-yl)piperidin-4-yl)ethyl)piperidin-4-yl)propoxy)-2-methylphenyl)picolinic acid] the same measures were “A (Ymin < 50%)” and less than 100 nM.
The like results for `Cc1c(OCCC[C@@H]2CCN(CC(=O)Nc3ccc4c(C5CCC(=O)NC5=O)nn(C)c4c3)CC2(F)F)cccc1-c1ccc(N2CCc3cccc(C(=O)Nc4nc5ccccc5s4)c3C2)nc1C(=O)O` (stereo partly drawn) [Compound 193a, 6-(8-(benzo[d]thiazol-2-ylcarbamoyl)-3,4-dihydroisoquinolin-2(1H)-yl)-3-(3-(3-((4R)-1-(2-((3-(2,6-dioxopiperidin-3-yl)-1-methyl-1H-indazol-6-yl)amino)-2-oxoethyl)-3,3-difluoropiperidin-4-yl)propoxy)-2-methylphenyl)picolinic acid] were, in that order, “B (50% ≤ Ymin < 70%)” and 100 to 1000 nM.
As for `Cc1c(OCCC[C@H]2CCN(CC(=O)Nc3ccc4c(C5CCC(=O)NC5=O)nn(C)c4c3)CC2(F)F)cccc1-c1ccc(N2CCc3cccc(C(=O)Nc4nc5ccccc5s4)c3C2)nc1C(=O)O` (stereo partly drawn) [Compound 193b], the “Ymin (24 h)” value (24 h) was “B (50% ≤ Ymin < 70%)”. Further, the DC50 (24 h, read-out: EC50 (24 h)) was 100 to 1000 nM.
With `Cc1c(OCCOC2CCN(CC(=O)Nc3cccc4c(C5CCC(=O)NC5=O)nn(C)c34)CC2)cccc1-c1ccc(N2CCc3cccc(C(=O)Nc4nc5ccccc5s4)c3C2)nc1C(=O)O` (stereo not drawn) [Compound 194, 6-[8-(1,3-benzothiazol-2-ylcarbamoyl)-3,4-dihydro-1H-isoquinolin-2-yl]-3-[3-[2-[[1-[2-[[3-(2,6-dioxo-3-piperidyl)-1-methyl-indazol-7-yl]amino]-2-oxo-ethyl]-4-piperidyl]oxy]ethoxy]-2-methyl-phenyl]pyridine-2-carboxylic acid], the “Ymin (6 h)” value (6 h) was “B (50% ≤ Ymin < 70%)”. The “Ymin (24 h)” value (24 h) was “B (50% ≤ Ymin < 70%)”. Also, the DC50 lay within 100 to 1000 nM (6 h, read-out: EC50 (6 h)) and 100 to 1000 nM (24 h, read-out: EC50 (24 h)).
Take `Cc1c(Oc2cccc(CCCN3CCN(c4ccc5c(C6CCC(=O)NC6=O)nn(C)c5c4)CC3)c2)cccc1-c1ccc(N2CCc3cccc(C(=O)Nc4nc5ccccc5s4)c3C2)nc1C(=O)O` (stereo not drawn) [Compound 195, 6-[8-(1,3-benzothiazol-2-ylcarbamoyl)-3,4-dihydro-1H-isoquinolin-2-yl]-3-[3-[3-[3-[4-[3-(2,6-dioxo-3-piperidyl)-1-methyl-indazol-6-yl]piperazin-1-yl]propyl]phenoxy]-2-methyl-phenyl]pyridine-2-carboxylic acid]: the “Ymin (6 h)” value (6 h) is recorded as “C (Ymin ≥ 70%)”. For the same molecule, the “Ymin (24 h)” value (24 h) was “B (50% ≤ Ymin < 70%)”. The DC50 runs as follows: (6 h, read-out: EC50 (6 h)) less than 100 nM; (24 h, read-out: EC50 (24 h)) less than 100 nM.
As for `Cc1c(OCCC(F)(F)C2CCN(CC(=O)Nc3cccc4c(C5CCC(=O)NC5=O)nn(C)c34)CC2)cccc1-c1ccc(N2CCc3cccc(C(=O)Nc4nc5ccccc5s4)c3C2)nc1C(=O)O` (stereo not drawn) [Compound 196, 6-(8-(benzo[d]thiazol-2-ylcarbamoyl)-3,4-dihydroisoquinolin-2(1H)-yl)-3-(3-(3-(1-(2-((3-(2,6-dioxopiperidin-3-yl)-1-methyl-1H-indazol-7-yl)amino)-2-oxoethyl)piperidin-4-yl)-3,3-difluoropropoxy)-2-methylphenyl)picolinic acid], under “24 h”, the “Ymin (24 h)” value is recorded as “B (50% ≤ Ymin < 70%)”. Moreover, the DC50 (24 h, read-out: EC50 (24 h)) was 100 to 1000 nM.
For `Cc1c(OCCC[C@H]2CCN(CC(=O)Nc3cccc4c(C5CCC(=O)NC5=O)nn(C)c34)CC2(F)F)cccc1-c1ccc(N2CCc3cccc(C(=O)Nc4nc5ccccc5s4)c3C2)nc1C(=O)O` (stereo partly drawn) [Compound 197a, 6-(8-(benzo[d]thiazol-2-ylcarbamoyl)-3,4-dihydroisoquinolin-2(1H)-yl)-3-(3-(3-((4S)-1-(2-((3-(2,6-dioxopiperidin-3-yl)-1-methyl-1H-indazol-7-yl)amino)-2-oxoethyl)-3,3-difluoropiperidin-4-yl)propoxy)-2-methylphenyl)picolinic acid] the same measures were “B (50% ≤ Ymin < 70%)” and 100 to 1000 nM.
The like results for `Cc1c(OCCC[C@@H]2CCN(CC(=O)Nc3cccc4c(C5CCC(=O)NC5=O)nn(C)c34)CC2(F)F)cccc1-c1ccc(N2CCc3cccc(C(=O)Nc4nc5ccccc5s4)c3C2)nc1C(=O)O` (stereo partly drawn) [Compound 197b, 6-(8-(benzo[d]thiazol-2-ylcarbamoyl)-3,4-dihydroisoquinolin-2(1H)-yl)-3-(3-(3-((4R)-1-(2-((3-(2,6-dioxopiperidin-3-yl)-1-methyl-1H-indazol-7-yl)amino)-2-oxoethyl)-3,3-difluoropiperidin-4-yl)propoxy)-2-methylphenyl)picolinic acid] were, in that order, “B (50% ≤ Ymin < 70%)” and 100 to 1000 nM.
The like results for `Cc1c(OCCN2CCN(CC3CCN(c4ccc5c(C6CCC(=O)NC6=O)nn(C)c5c4)CC3)CC2)cccc1-c1ccc(N2CCc3cccc(C(=O)Nc4nc5ccccc5s4)c3C2)nc1C(=O)O` (stereo not drawn) [Compound 198, 6-(8-(benzo[d]thiazol-2-ylcarbamoyl)-3,4-dihydroisoquinolin-2(1H)-yl)-3-(3-(2-(4-((1-(3-(2,6-dioxopiperidin-3-yl)-1-methyl-1H-indazol-6-yl)piperidin-4-yl)methyl)piperazin-1-yl)ethoxy)-2-methylphenyl)picolinic acid] were, in that order, “A (Ymin < 50%)” and less than 100 nM.
Consider `Cc1c(Oc2ccc(CC(F)(F)CN3CCN(c4cccc5c(C6CCC(=O)NC6=O)nn(C)c45)CC3)cc2)cccc1-c1ccc(N2CCc3cccc(C(=O)Nc4nc5ccccc5s4)c3C2)nc1C(=O)O` (stereo not drawn) [Compound 201, 6-[8-(1,3-benzothiazol-2-ylcarbamoyl)-3,4-dihydro-1H-isoquinolin-2-yl]-3-[3-[4-[3-[4-[3-(2,6-dioxo-3-piperidyl)-1-methyl-indazol-7-yl]piperazin-1-yl]-2,2-difluoro-propyl]phenoxy]-2-methyl-phenyl]pyridine-2-carboxylic acid], for which the “Ymin (6 h)” value (6 h) was “B (50% ≤ Ymin < 70%)”. The “Ymin (24 h)” value (24 h) is listed as “A (Ymin < 50%)”. For the same molecule, the DC50 by setting is: (6 h, read-out: EC50 (6 h)) 1000 to 10000 nM; (24 h, read-out: EC50 (24 h)) 1000 to 10000 nM.
